# In the NIST ThermoML archive (doi:10.1021/acs.jced.8b00201):
# Numbers after ± are expanded uncertainties.
# Test: xn = mol fraction of the nth substance listed
# Details: 100 kPa, Liquid; for viscosity: Concentric cylinders viscometry; for mass density: Vibrating tube method
smiles,measurement,setting,value
CCCCCCCO [heptan-1-ol] + O=C1CCCCC1,viscosity,"293.15 K, x2 = 0",7.03 ± 0.35 mPa·s
same,viscosity,"293.15 K, x2 = 0.0809",6.06 ± 0.31 mPa·s
same,viscosity,"293.15 K, x2 = 0.1601",5.23 ± 0.26 mPa·s
same,viscosity,"293.15 K, x2 = 0.2406",4.49 ± 0.23 mPa·s
same,viscosity,"293.15 K, x2 = 0.3511",3.68 ± 0.19 mPa·s
same,viscosity,"293.15 K, x2 = 0.4227",3.27 ± 0.16 mPa·s
same,viscosity,"293.15 K, x2 = 0.5754",2.71 ± 0.14 mPa·s
same,viscosity,"293.15 K, x2 = 0.6492",2.59 ± 0.13 mPa·s
same,viscosity,"293.15 K, x2 = 0.7422",2.46 ± 0.12 mPa·s
same,viscosity,"293.15 K, x2 = 0.8513",2.38 ± 0.12 mPa·s
same,viscosity,"293.15 K, x2 = 0.9385",2.35 ± 0.12 mPa·s
same,mass density,"293.15 K, x2 = 0",822.2 ± 20 kg/m3
same,mass density,"293.15 K, x2 = 0.0809",829.7 ± 20 kg/m3
same,mass density,"293.15 K, x2 = 0.1601",837.3 ± 20 kg/m3
same,mass density,"293.15 K, x2 = 0.2406",845.4 ± 20 kg/m3
same,mass density,"293.15 K, x2 = 0.3511",857.4 ± 20 kg/m3
same,mass density,"293.15 K, x2 = 0.4227",865.6 ± 20 kg/m3
same,mass density,"293.15 K, x2 = 0.5754",884.4 ± 20 kg/m3
same,mass density,"293.15 K, x2 = 0.6492",894.2 ± 20 kg/m3
same,mass density,"293.15 K, x2 = 0.7422",907.3 ± 20 kg/m3
same,mass density,"293.15 K, x2 = 0.8513",923.9 ± 20 kg/m3
same,mass density,"293.15 K, x2 = 0.9385",938.2 ± 20 kg/m3
same,viscosity,"298.15 K, x2 = 0",5.92 ± 0.3 mPa·s
same,viscosity,"298.15 K, x2 = 0.0809",5.15 ± 0.26 mPa·s
same,viscosity,"298.15 K, x2 = 0.1601",4.46 ± 0.22 mPa·s
same,viscosity,"298.15 K, x2 = 0.2406",3.89 ± 0.2 mPa·s
same,viscosity,"298.15 K, x2 = 0.3511",3.22 ± 0.16 mPa·s
same,viscosity,"298.15 K, x2 = 0.4227",2.83 ± 0.14 mPa·s
same,viscosity,"298.15 K, x2 = 0.5754",2.39 ± 0.12 mPa·s
same,viscosity,"298.15 K, x2 = 0.6492",2.29 ± 0.12 mPa·s
same,viscosity,"298.15 K, x2 = 0.7422",2.19 ± 0.11 mPa·s
same,viscosity,"298.15 K, x2 = 0.8513",2.12 ± 0.11 mPa·s
same,viscosity,"298.15 K, x2 = 0.9385",2.09 ± 0.11 mPa·s
same,mass density,"298.15 K, x2 = 0",818.7 ± 20 kg/m3
same,mass density,"298.15 K, x2 = 0.0809",826 ± 20 kg/m3
same,mass density,"298.15 K, x2 = 0.1601",833.5 ± 20 kg/m3
same,mass density,"298.15 K, x2 = 0.2406",841.4 ± 20 kg/m3
same,mass density,"298.15 K, x2 = 0.3511",853.1 ± 20 kg/m3
same,mass density,"298.15 K, x2 = 0.4227",861.2 ± 20 kg/m3
same,mass density,"298.15 K, x2 = 0.5754",879.6 ± 20 kg/m3
same,mass density,"298.15 K, x2 = 0.6492",889.3 ± 20 kg/m3
same,mass density,"298.15 K, x2 = 0.7422",902.2 ± 20 kg/m3
same,mass density,"298.15 K, x2 = 0.8513",918.5 ± 20 kg/m3
same,mass density,"298.15 K, x2 = 0.9385",932.6 ± 20 kg/m3
same,viscosity,"303.15 K, x2 = 0",5.03 ± 0.25 mPa·s
same,viscosity,"303.15 K, x2 = 0.0809",4.41 ± 0.22 mPa·s
same,viscosity,"303.15 K, x2 = 0.1601",3.86 ± 0.19 mPa·s
same,viscosity,"303.15 K, x2 = 0.2406",3.37 ± 0.17 mPa·s
same,viscosity,"303.15 K, x2 = 0.3511",2.82 ± 0.14 mPa·s
same,viscosity,"303.15 K, x2 = 0.4227",2.51 ± 0.13 mPa·s
same,viscosity,"303.15 K, x2 = 0.5754",2.11 ± 0.11 mPa·s
same,viscosity,"303.15 K, x2 = 0.6492",2.04 ± 0.1 mPa·s
same,viscosity,"303.15 K, x2 = 0.7422",1.97 ± 0.1 mPa·s
same,viscosity,"303.15 K, x2 = 0.8513",1.94 ± 0.1 mPa·s
same,viscosity,"303.15 K, x2 = 0.9385",1.93 ± 0.1 mPa·s
same,mass density,"303.15 K, x2 = 0",815.2 ± 20 kg/m3
same,mass density,"303.15 K, x2 = 0.0809",822.3 ± 20 kg/m3
same,mass density,"303.15 K, x2 = 0.1601",829.7 ± 20 kg/m3
same,mass density,"303.15 K, x2 = 0.2406",837.5 ± 20 kg/m3
same,mass density,"303.15 K, x2 = 0.3511",849 ± 20 kg/m3
same,mass density,"303.15 K, x2 = 0.4227",857 ± 20 kg/m3
same,mass density,"303.15 K, x2 = 0.5754",875.2 ± 20 kg/m3
same,mass density,"303.15 K, x2 = 0.6492",884.8 ± 20 kg/m3
same,mass density,"303.15 K, x2 = 0.7422",897.6 ± 20 kg/m3
same,mass density,"303.15 K, x2 = 0.8513",913.8 ± 20 kg/m3
same,mass density,"303.15 K, x2 = 0.9385",927.7 ± 20 kg/m3
same,viscosity,"308.15 K, x2 = 0",4.3 ± 0.22 mPa·s
same,viscosity,"308.15 K, x2 = 0.0809",3.78 ± 0.19 mPa·s
same,viscosity,"308.15 K, x2 = 0.1601",3.32 ± 0.17 mPa·s
same,viscosity,"308.15 K, x2 = 0.2406",2.93 ± 0.15 mPa·s
same,viscosity,"308.15 K, x2 = 0.3511",2.49 ± 0.13 mPa·s
same,viscosity,"308.15 K, x2 = 0.4227",2.26 ± 0.11 mPa·s
same,viscosity,"308.15 K, x2 = 0.5754",1.93 ± 0.1 mPa·s
same,viscosity,"308.15 K, x2 = 0.6492",1.85 ± 0.09 mPa·s
same,viscosity,"308.15 K, x2 = 0.7422",1.78 ± 0.09 mPa·s
same,viscosity,"308.15 K, x2 = 0.8513",1.75 ± 0.09 mPa·s
same,viscosity,"308.15 K, x2 = 0.9385",1.76 ± 0.09 mPa·s
same,mass density,"308.15 K, x2 = 0",811.6 ± 20 kg/m3
same,mass density,"308.15 K, x2 = 0.0809",818.7 ± 20 kg/m3
same,mass density,"308.15 K, x2 = 0.1601",825.9 ± 20 kg/m3
same,mass density,"308.15 K, x2 = 0.2406",833.6 ± 20 kg/m3
same,mass density,"308.15 K, x2 = 0.3511",845 ± 20 kg/m3
same,mass density,"308.15 K, x2 = 0.4227",852.8 ± 20 kg/m3
same,mass density,"308.15 K, x2 = 0.5754",870.9 ± 20 kg/m3
same,mass density,"308.15 K, x2 = 0.6492",880.4 ± 20 kg/m3
same,mass density,"308.15 K, x2 = 0.7422",893.1 ± 20 kg/m3
same,mass density,"308.15 K, x2 = 0.8513",909.2 ± 20 kg/m3
same,mass density,"308.15 K, x2 = 0.9385",923.1 ± 20 kg/m3
same,viscosity,"313.15 K, x2 = 0",3.71 ± 0.19 mPa·s
same,viscosity,"313.15 K, x2 = 0.0809",3.24 ± 0.16 mPa·s
same,viscosity,"313.15 K, x2 = 0.1601",2.86 ± 0.14 mPa·s
same,viscosity,"313.15 K, x2 = 0.2406",2.54 ± 0.13 mPa·s
same,viscosity,"313.15 K, x2 = 0.3511",2.19 ± 0.11 mPa·s
same,viscosity,"313.15 K, x2 = 0.4227",2.03 ± 0.1 mPa·s
same,viscosity,"313.15 K, x2 = 0.5754",1.77 ± 0.09 mPa·s
same,viscosity,"313.15 K, x2 = 0.6492",1.72 ± 0.09 mPa·s
same,viscosity,"313.15 K, x2 = 0.7422",1.65 ± 0.08 mPa·s
same,viscosity,"313.15 K, x2 = 0.8513",1.62 ± 0.08 mPa·s
same,viscosity,"313.15 K, x2 = 0.9385",1.6 ± 0.08 mPa·s
same,mass density,"313.15 K, x2 = 0",808 ± 20 kg/m3
same,mass density,"313.15 K, x2 = 0.0809",814.9 ± 20 kg/m3
same,mass density,"313.15 K, x2 = 0.1601",822.1 ± 20 kg/m3
same,mass density,"313.15 K, x2 = 0.2406",829.7 ± 20 kg/m3
same,mass density,"313.15 K, x2 = 0.3511",840.9 ± 20 kg/m3
same,mass density,"313.15 K, x2 = 0.4227",848.7 ± 20 kg/m3
same,mass density,"313.15 K, x2 = 0.5754",866.6 ± 20 kg/m3
same,mass density,"313.15 K, x2 = 0.6492",876 ± 20 kg/m3
same,mass density,"313.15 K, x2 = 0.7422",888.6 ± 20 kg/m3
same,mass density,"313.15 K, x2 = 0.8513",904.5 ± 20 kg/m3
same,mass density,"313.15 K, x2 = 0.9385",918.4 ± 20 kg/m3
same,viscosity,"318.15 K, x2 = 0",3.21 ± 0.16 mPa·s
same,viscosity,"318.15 K, x2 = 0.0809",2.83 ± 0.14 mPa·s
same,viscosity,"318.15 K, x2 = 0.1601",2.5 ± 0.13 mPa·s
same,viscosity,"318.15 K, x2 = 0.2406",2.23 ± 0.11 mPa·s
same,viscosity,"318.15 K, x2 = 0.3511",1.95 ± 0.1 mPa·s
same,viscosity,"318.15 K, x2 = 0.4227",1.82 ± 0.09 mPa·s
same,viscosity,"318.15 K, x2 = 0.5754",1.61 ± 0.08 mPa·s
same,viscosity,"318.15 K, x2 = 0.6492",1.57 ± 0.08 mPa·s
same,viscosity,"318.15 K, x2 = 0.7422",1.51 ± 0.08 mPa·s
same,viscosity,"318.15 K, x2 = 0.8513",1.49 ± 0.08 mPa·s
same,viscosity,"318.15 K, x2 = 0.9385",1.47 ± 0.07 mPa·s
same,mass density,"318.15 K, x2 = 0",804.4 ± 20 kg/m3
same,mass density,"318.15 K, x2 = 0.0809",811.2 ± 20 kg/m3
same,mass density,"318.15 K, x2 = 0.1601",818.3 ± 20 kg/m3
same,mass density,"318.15 K, x2 = 0.2406",825.8 ± 20 kg/m3
same,mass density,"318.15 K, x2 = 0.3511",836.9 ± 20 kg/m3
same,mass density,"318.15 K, x2 = 0.4227",844.6 ± 20 kg/m3
same,mass density,"318.15 K, x2 = 0.5754",862.3 ± 20 kg/m3
same,mass density,"318.15 K, x2 = 0.6492",871.7 ± 20 kg/m3
same,mass density,"318.15 K, x2 = 0.7422",884.2 ± 20 kg/m3
same,mass density,"318.15 K, x2 = 0.8513",900.2 ± 20 kg/m3
same,mass density,"318.15 K, x2 = 0.9385",914.1 ± 20 kg/m3
same,viscosity,"323.15 K, x2 = 0",2.79 ± 0.14 mPa·s
same,viscosity,"323.15 K, x2 = 0.0809",2.49 ± 0.13 mPa·s
same,viscosity,"323.15 K, x2 = 0.1601",2.23 ± 0.11 mPa·s
same,viscosity,"323.15 K, x2 = 0.2406",2.01 ± 0.1 mPa·s
same,viscosity,"323.15 K, x2 = 0.3511",1.77 ± 0.09 mPa·s
same,viscosity,"323.15 K, x2 = 0.4227",1.64 ± 0.08 mPa·s
same,viscosity,"323.15 K, x2 = 0.5754",1.45 ± 0.07 mPa·s
same,viscosity,"323.15 K, x2 = 0.6492",1.4 ± 0.07 mPa·s
same,viscosity,"323.15 K, x2 = 0.7422",1.35 ± 0.07 mPa·s
same,viscosity,"323.15 K, x2 = 0.8513",1.33 ± 0.07 mPa·s
same,viscosity,"323.15 K, x2 = 0.9385",1.33 ± 0.07 mPa·s
same,mass density,"323.15 K, x2 = 0",800.7 ± 20 kg/m3
same,mass density,"323.15 K, x2 = 0.0809",807.5 ± 20 kg/m3
same,mass density,"323.15 K, x2 = 0.1601",814.5 ± 20 kg/m3
same,mass density,"323.15 K, x2 = 0.2406",821.9 ± 20 kg/m3
same,mass density,"323.15 K, x2 = 0.3511",833 ± 20 kg/m3
same,mass density,"323.15 K, x2 = 0.4227",840.7 ± 20 kg/m3
same,mass density,"323.15 K, x2 = 0.5754",858.4 ± 20 kg/m3
same,mass density,"323.15 K, x2 = 0.6492",867.7 ± 20 kg/m3
same,mass density,"323.15 K, x2 = 0.7422",880.3 ± 20 kg/m3
same,mass density,"323.15 K, x2 = 0.8513",896.4 ± 20 kg/m3
same,mass density,"323.15 K, x2 = 0.9385",910.2 ± 20 kg/m3
